# Measurements taken from the supplement of paper PMC10307832.
# What was measured:
# Assay in all cases: relative viability (nuclei count vs DMSO), 5 days (fraction); higher = more cells survive
# [1] = compound: C1/C(=C\C2=CC=CS2)/C(=O)/C(=C/C3=CC=CS3)/C1 + COc1cc2c(Oc3ccc(NC(=O)C4(C(=O)Nc5ccc(F)cc5)CC4)cc3F)ccnc2cc1OCCCN1CCOCC1 [Foretinib] (partner 0.25 µM)
# Method in brief: (§1)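 Each reported value is a median over duplicate plates. It expresses relative viability: treated-well nuclei count divided by vehicle-well nuclei count. Lung cancer cell lines in 1536-well plates were dosed by pin tool a day after seeding, alone with one drug or with a fixed anchor-drug dose plus five library-drug doses (not always all listed) in √10 steps, and nuclei were counted after 5 days.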
# [2] = compound: C1/C(=C\C2=CC=CS2)/C(=O)/C(=C/C3=CC=CS3)/C1 + C[C@]1(O)C[C@@H](c2nc(-c3ccc4ccc(-c5ccccc5)nc4c3)c3c(N)nccn32)C1 [Linsitinib] (partner 1 µM)
# Method in brief: as §1
# [3] = compound: C[C@]12O[C@H](C[C@]1(O)CO)n1c3ccccc3c3c4c(c5c6ccccc6n2c5c31)CNC4=O [Lestaurtinib] + Cc1cc(Nc2cc(N3CCN(C)CC3)nc(Sc3ccc(NC(=O)C4CC4)cc3)n2)n[nH]1 [Tozasertib] (partner 0.1 µM)
# Method in brief: as §1
# [4] = compound: C[C@]12O[C@H](C[C@]1(O)CO)n1c3ccccc3c3c4c(c5c6ccccc6n2c5c31)CNC4=O [Lestaurtinib] + C[C@]1(O)C[C@@H](c2nc(-c3ccc4ccc(-c5ccccc5)nc4c3)c3c(N)nccn32)C1 [Linsitinib] (partner 1 µM)
# Method in brief: as §1
Cell Line,relative viability ([1]; first compound 0.2 µM),relative viability ([1]; first compound 0.6325 µM),relative viability ([1]; first compound 2 µM),relative viability ([1]; first compound 6.325 µM),relative viability ([1]; first compound 20 µM),relative viability ([2]; first compound 0.2 µM),relative viability ([2]; first compound 0.6325 µM),relative viability ([2]; first compound 2 µM),relative viability ([2]; first compound 6.325 µM),relative viability ([2]; first compound 20 µM),relative viability ([3]; first compound 0.005 µM),relative viability ([3]; first compound 0.01581 µM),relative viability ([3]; first compound 0.05 µM),relative viability ([3]; first compound 0.1581 µM),relative viability ([3]; first compound 0.5 µM),relative viability ([4]; first compound 0.005 µM),relative viability ([4]; first compound 0.01581 µM),relative viability ([4]; first compound 0.05 µM),relative viability ([4]; first compound 0.1581 µM),relative viability ([4]; first compound 0.5 µM)
201T,1,1.09,1.25,0.752,1.02,1.08,0.989,1.16,0.9,0.996,1,0.984,1.05,0.955,0.354,1.03,0.987,0.992,0.926,0.937
A549,0.888,1.01,0.968,–,0.937,0.636,0.556,0.628,0.516,0.567,–,–,–,–,–,0.621,0.596,0.229,0.148,0.174
A-427,1.04,1.01,1.06,0.992,1.16,1.14,1.12,1.11,1.06,1.15,0.199,0.206,0.183,0.159,0.144,1.17,1.12,1.01,0.631,0.658
ABC-1,0.984,0.991,1.1,0.617,1.2,0.931,0.879,0.882,0.671,0.802,0.208,0.175,0.134,0.155,0.2,0.834,0.993,0.603,0.536,0.165
BEN,0.7,0.646,0.78,0.745,0.655,0.96,0.923,0.877,0.841,0.757,0.561,0.53,0.428,0.377,0.217,0.949,1.09,0.747,0.778,0.321
CAL-12T,1.34,1.02,1.09,0.981,1.03,0.837,0.964,0.764,0.744,0.92,0.32,0.44,0.333,0.37,0.332,0.805,0.84,0.774,0.565,0.416
COR-L23,1.09,1.09,0.874,0.859,0.958,0.981,0.921,0.875,0.838,0.887,0.197,0.229,0.184,0.174,0.184,1,0.858,–,0.471,0.153
COR-L 105,1.49,1.02,1.31,–,1.03,0.976,0.905,0.939,0.766,0.878,0.406,0.355,0.35,0.31,0.268,1.11,0.873,0.692,0.502,0.337
Calu-6,0.833,0.945,0.895,0.759,0.82,1.05,1.05,0.94,0.921,0.835,–,–,–,–,–,0.908,–,0.555,0.262,0.218
ChaGo-K-1,0.912,1.01,0.857,0.797,0.41,–,–,–,–,–,0.221,0.254,0.243,0.231,0.215,–,–,–,–,–
EBC-1,0.112,0.091,0.0946,0.111,0.0934,0.904,0.973,0.887,0.801,0.942,–,–,–,–,–,0.856,0.999,0.585,0.633,0.432
EKVX,0.82,0.696,0.603,0.615,0.778,1.1,1.05,0.974,0.776,1,0.345,0.432,0.417,0.378,0.395,1.03,1.13,0.949,1.08,0.552
EMC-BAC-2,1.01,1.03,0.973,0.656,1.09,0.811,0.787,0.84,0.761,0.792,0.279,0.206,0.283,0.22,0.183,0.764,0.801,0.641,0.45,0.221
EPLC-272H,0.602,0.776,0.657,0.594,0.601,1.29,1.07,1.22,1.19,1.03,0.297,0.282,0.322,0.231,0.128,1.13,1.05,0.517,0.54,0.577
H3255,0.847,1.09,1.1,0.819,0.83,0.949,0.92,0.909,0.728,0.913,0.611,0.884,0.633,0.587,0.5,0.986,1.07,0.864,0.668,0.457
HARA,0.875,0.992,0.973,0.832,0.842,0.968,1.06,0.898,0.242,0.902,0.126,0.106,0.111,0.108,0.102,1.02,1.09,0.648,0.453,0.198
HCC-15,1.09,0.994,1.03,0.917,1.06,0.899,0.921,0.846,0.734,0.888,0.598,0.599,0.232,0.235,0.107,0.98,0.958,0.71,0.529,0.159
